The supplement of paper PMC10307832

Experiments:
Assay in all cases: relative viability (nuclei count vs DMSO), 5 days (fraction); higher = more cells survive
AZD5582 + Crizotinib = compound: C[C@@H](C(=O)N[C@@H](C1CCCCC1)C(=O)N2CCC[C@H]2C(=O)N[C@@H]3[C@@H](CC4=CC=CC=C34)OCC#CC#CCO[C@@H]5CC6=CC=CC=C6[C@@H]5NC(=O)[C@@H]7CCCN7C(=O)[C@H](C8CCCCC8)NC(=O)[C@H](C)NC)NC [AZD5582] + C[C@@H](Oc1cc(-c2cnn(C3CCNCC3)c2)cnc1N)c1c(Cl)ccc(F)c1Cl [Crizotinib] (partner 1 µM)
How it was run: (§1)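 Lung cancer cell lines in 1536-well plates got either a single drug or a fixed anchor-drug dose together with five library-drug doses (not always all listed) in √10 steps, by pin tool, on the day after seeding. Nuclei were counted after 5 days, and relative viability is the treated-to-vehicle ratio of nuclei counts. Values are medians of duplicate plates.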

AZD5582 + Decitabine = compound: C[C@@H](C(=O)N[C@@H](C1CCCCC1)C(=O)N2CCC[C@H]2C(=O)N[C@@H]3[C@@H](CC4=CC=CC=C34)OCC#CC#CCO[C@@H]5CC6=CC=CC=C6[C@@H]5NC(=O)[C@@H]7CCCN7C(=O)[C@H](C8CCCCC8)NC(=O)[C@H](C)NC)NC [AZD5582] + Nc1ncn([C@H]2C[C@H](O)[C@@H](CO)O2)c(=O)n1 [Decitabine] (partner 2 µM)
How it was run: as §1

AZD5582 + OSI-027 = compound: C[C@@H](C(=O)N[C@@H](C1CCCCC1)C(=O)N2CCC[C@H]2C(=O)N[C@@H]3[C@@H](CC4=CC=CC=C34)OCC#CC#CCO[C@@H]5CC6=CC=CC=C6[C@@H]5NC(=O)[C@@H]7CCCN7C(=O)[C@H](C8CCCCC8)NC(=O)[C@H](C)NC)NC [AZD5582] + COc1cccc2cc(-c3nc([C@H]4CC[C@H](C(=O)O)CC4)n4ncnc(N)c34)[nH]c12 [OSI-027] (partner 0.5 µM)
How it was run: as §1

Temozolomide + OSI-027 = compound: Cn1nnc2c(C(N)=O)ncn2c1=O [Temozolomide] + COc1cccc2cc(-c3nc([C@H]4CC[C@H](C(=O)O)CC4)n4ncnc(N)c34)[nH]c12 [OSI-027] (partner 0.5 µM)
How it was run: as §1

| Cell Line | relative viability (AZD5582 + Crizotinib; first compound 0.001581 µM) | relative viability (AZD5582 + Crizotinib; first compound 0.005 µM) | relative viability (AZD5582 + Crizotinib; first compound 0.01581 µM) | relative viability (AZD5582 + Crizotinib; first compound 0.05 µM) | relative viability (AZD5582 + Decitabine; first compound 0.001581 µM) | relative viability (AZD5582 + Decitabine; first compound 0.005 µM) | relative viability (AZD5582 + Decitabine; first compound 0.01581 µM) | relative viability (AZD5582 + Decitabine; first compound 0.05 µM) | relative viability (AZD5582 + OSI-027; first compound 0.001581 µM) | relative viability (AZD5582 + OSI-027; first compound 0.005 µM) | relative viability (AZD5582 + OSI-027; first compound 0.01581 µM) | relative viability (AZD5582 + OSI-027; first compound 0.05 µM) | relative viability (Temozolomide + OSI-027; first compound 0.2 µM) | relative viability (Temozolomide + OSI-027; first compound 0.6325 µM) | relative viability (Temozolomide + OSI-027; first compound 2 µM) | relative viability (Temozolomide + OSI-027; first compound 6.325 µM) | relative viability (Temozolomide + OSI-027; first compound 20 µM) |
| --- | --- | --- | --- | --- | --- | --- | --- | --- | --- | --- | --- | --- | --- | --- | --- | --- | --- |
| NCI-H650 | 0.581 | 0.393 | 0.591 | 0.401 | 0.327 | 0.3 | 0.321 | 0.306 | 0.431 | 0.509 | 0.364 | 0.32 | 0.562 | 0.535 | 0.584 | 0.506 | 0.534 |
| LC-2-ad | 0.457 | 0.454 | 0.384 | 0.391 | 0.822 | 0.847 | 0.765 | 0.764 | 0.823 | 1.05 | 0.725 | 0.957 | 0.782 | 0.917 | 0.926 | 0.825 | 0.737 |
| NCI-H1299 | 0.895 | 0.895 | 0.994 | 0.901 |  |  |  |  |  |  |  |  |  |  |  |  |  |
| NCI-H3122 | 0.264 | 0.305 | 0.298 | 0.247 | 0.476 | 0.384 | 0.42 | 0.224 | 0.912 | 0.891 | 1.02 | 0.147 | 0.404 | 0.995 | 1.33 | 0.949 | 1.03 |
| EBC-1 | 0.178 | 0.233 | 0.181 | 0.208 |  |  |  |  |  |  |  |  |  |  |  |  |  |
| NCI-H441 | 0.621 | 0.567 | 0.62 | 0.491 | 0.211 | 0.23 | 0.21 | 0.225 | 0.536 | 0.582 |  | 0.651 | 0.597 | 0.85 | 0.846 | 0.523 | 0.651 |
| LOU-NH91 | 0.713 | 0.746 | 0.729 | 0.741 | 0.803 | 0.835 | 0.824 | 0.794 | 0.752 | 0.739 | 0.705 | 0.711 | 0.494 | 0.729 | 0.781 | 0.756 | 0.493 |
| LXF-289 | 0.75 | 0.788 | 0.788 | 0.725 | 0.372 | 0.331 | 0.391 | 0.308 | 0.71 | 0.907 | 0.495 | 0.792 | 0.772 | 0.863 | 0.927 | 0.76 | 0.63 |
| HCC-827 | 0.885 | 1.02 | 0.926 | 0.898 | 0.281 | 0.292 | 0.348 | 0.308 | 0.618 | 0.84 | 0.761 | 0.855 | 0.45 | 0.756 | 0.8 | 0.73 | 0.133 |
| RERF-LC-KJ | 0.525 | 0.516 | 0.792 | 0.782 |  |  | 0.779 | 0.208 |  |  | 0.508 | 0.289 | 0.495 | 0.6 | 0.597 | 0.53 | 0.554 |
| NCI-H2228 | 0.623 | 0.521 | 0.702 | 0.479 |  |  |  |  | 0.524 | 0.749 | 0.62 | 0.237 | 0.557 | 0.56 | 0.602 | 0.583 | 0.727 |
| SW 1573 | 0.686 | 0.717 | 0.815 | 0.858 | 0.551 | 0.631 | 0.674 | 0.685 | 0.72 | 0.66 | 0.662 | 0.862 | 0.672 | 0.66 | 0.734 | 0.608 | 0.721 |
| NCI-H1792 | 0.903 | 1.01 | 0.908 | 1.08 | 0.503 | 0.622 | 0.526 | 0.672 | 0.679 | 0.872 | 0.73 | 1.06 | 0.552 | 0.739 | 0.689 | 0.681 | 0.736 |
| ChaGo-K-1 | 0.988 | 1.1 | 1.13 | 1.23 | 0.545 | 0.579 | 0.509 | 0.597 | 0.497 | 0.596 | 0.57 | 0.545 | 0.623 | 0.543 | 0.685 | 0.508 | 0.554 |
| NCI-H1650 | 0.904 | 0.964 | 0.88 | 0.736 | 0.389 | 0.366 | 0.51 | 0.279 | 0.599 | 0.859 | 0.547 | 0.564 | 0.638 | 0.788 | 0.651 | 0.596 | 0.409 |
| HARA | 1.01 | 0.894 | 1.04 | 1 | 0.595 | 0.53 | 0.565 | 0.49 | 0.414 | 0.544 | 0.362 | 0.307 | 0.318 | 0.656 | 0.558 | 0.439 | 0.226 |
| SW 900 |  |  |  |  | 0.372 | 0.364 | 0.38 | 0.246 | 0.412 | 0.559 | 0.518 | 0.571 | 0.569 | 0.618 | 0.47 | 0.5 | 0.744 |
| NCI-H520 | 0.743 | 0.709 | 0.729 | 0.773 | 0.504 | 0.515 | 0.509 | 0.557 | 0.261 | 0.21 | 0.224 | 0.269 | 0.211 | 0.298 | 0.255 | 0.271 | 0.239 |
| ABC-1 | 0.737 | 0.863 | 1.04 | 0.919 | 1.06 | 1.08 | 0.931 | 1.36 | 0.491 | 0.608 | 0.375 | 0.488 | 0.554 | 0.513 | 0.564 | 0.517 | 0.585 |
| NCI-H1734 | 0.662 | 0.717 | 0.682 | 0.746 | 0.479 | 0.527 | 0.484 | 0.514 | 0.691 | 0.704 | 0.595 | 0.594 | 0.685 | 0.562 | 0.667 | 0.578 | 0.649 |
